In one series the target is Biotinylated PCSK9 (Homo sapiens (Human), UniProt Q8NBP7). Put plainly: Binding affinity of SHIM compounds to PCSK9 by surface plasmon resonance spectroscopy (Biacore T200). The conditions noted are these: SPR, range tested 0.5-10 uM, 1:1 Langmuir model, NB = no binding detected in the tested range; for Kd: read-out: KD - equilibrium dissociation constant; for kon: read-out: ka - association rate constant; for koff: read-out: kd - dissociation rate constant. The method, then: Studies of SHIM compounds—PCSK9 interactions. […] Biotinylated PCSK9 (ACRO Biosystems) at 1 μg/mL has been captured on a chip on which streptavidin has been immobilized with amine-directed chemistry according to the manufacturer's instructions (6000 RU) to a density of 6000 RU in PBS-P ([…], 0.005% Tween 20, pH7.4) buffer with 1% DMSO. SHIMs at 10, 3.3, 1.1, 0.33 and 0.11 uM were injected at 30 uL/min. […] Double reference method of analysis was used with the reference channel containing a reference biotinylated protein captured at 6000 RU.

Series [1] deals with LDLR protein levels in HepG2 cells. Put plainly: Western blot analysis of relative LDLR protein levels in HepG2 cells after treatment. The format is cell-based, human. The conditions noted are these: HepG2 cells incubated overnight with compound, 0.2 μM to 20 μM. As to the method:
Cell culture, treatments and cell viability assay. For phenotypic screening of PCSK9 modulators and/or LDLR small molecule inducers, human HepG2 cells were incubated overnight in conditioned media containing chemical compounds resuspended in DMSO at concentration ranging from 0.2 μM to 20 μM. […] Following incubation, media have been replaced and cells incubated for 4 h with 100 μL of phenol red-free DMEM containing 0.5 mg/mL of MTT (3-[4,5-dimethylthiazol-2-yl]-2,5-diphenyltetrazolium bromide; thiazolyl blue; catalog no. M5655, Sigma-Aldrich), following manufacturer's instructions.
Western Blot Analysis, Immunocytochemistry and LDLR Activity Assay. Following incubation, cells were washed three times in phosphate-buffered saline (PBS) and lysed in radioimmune precipitation assay buffer (50 mM Tris/HCl, pH 8.0, 1% (v/v) Nonidet P-40, 0.5% sodium deoxycholate, 150 mM NaCl, and 0.1% (v/v) SDS) supplemented with a complete protease inhibitor mixture (catalog no. 11 697 498 001, Roche Applied Science). Proteins were separated by SDS polyacrylamide gel electrophoresis, blotted on nitrocellulose membranes (Bio-Rad), blocked incubated with indicated antibodies as described (Poirier S, et al., Cell Rep, 2015). For immunocytochemistry analysis, cells were permeabilized or not with 0.1% Triton X-100/PBS for 10 min, and incubated with 150 mM glycine, blocked and incubated with indicated primary and secondary antibodies. Immunofluorescence analyses were performed with an Olympus FluoView FV10i confocal microscope (Poirier et al., Cell Rep. 2015; 13(10):2064-2071). For LDLR activity assay, HepG2 cells were incubated overnight without or with a given compound in the presence of 5 μg/ml fluorescent labelled DiI-LDL (Alfa Aesar, Cat. #J65330) and co-stained for LDLR if applicable, as described (Poirier et al., J Biol Chem. 2009; 284(42):28856-28864). Immunofluorescence analyses were performed with an Olympus FluoView FV10i confocal microscope.
In general terms: In western blotting, separated proteins are transferred to a membrane and probed.

Series [2] relates to hypercholesterolemic C57BL/6 Pcsk9 KO mice. The series can be described thus: Efficacy and safety in hypercholesterolemic C57BL/6 Pcsk9 KO mice on Western diet, oral gavage. The format is in vivo. The conditions noted are these: 40 mg/kg/day oral gavage for 10 days.
Text: Animal studies. All animal studies were approved by the Montreal Heart Institute (MHI) Animal Care and Ethical committee. For in vivo proof-of-concept animal studies, wild-type C57BL/6 or Pcsk9 knockout male mice were fed on Western diet containing 48.5% w/w carbohydrate, 21.2% w/w fat, 17.3% w/w protein and 0.2% w/w cholesterol (catalog no. TD.88137, Envigo) for 14 days. Chemical compounds were mixed in DMSO/propylene glycol/water; 1:7:2 (v/v) and administered by oral gavage at 0 (vehicle) or 40 mg/kg/day for 10 days in mice on Western diet. Plasma lipoprotein cholesterol profiles were obtained from 100 μL of pooled plasma injected on a Superose 6 10/300 GL (catalog no. 17-5172-01, GE Life Sciences) and eluted with PBS at a flow rate of 0.1 mL per min at 4° C. mounted on a AKTA explorer system (GE Healthcare). Serum aspartate aminotransferase (AST), alanine transaminase (ALT), insulin, glucose and complete hematology tests were measured by the Montreal Heart Institute biochemical clinical chemistry platform according to manufacturer's recommendations.

We go through three molecules from patent US12419888B2, “Methods of treating elevated plasma cholesterol” (INSTITUT DE CARDIOLOGIE DE MONTREAL, priority 2020, dated 2025).

Sequence of Biotinylated PCSK9 (Q8NBP7 153-692): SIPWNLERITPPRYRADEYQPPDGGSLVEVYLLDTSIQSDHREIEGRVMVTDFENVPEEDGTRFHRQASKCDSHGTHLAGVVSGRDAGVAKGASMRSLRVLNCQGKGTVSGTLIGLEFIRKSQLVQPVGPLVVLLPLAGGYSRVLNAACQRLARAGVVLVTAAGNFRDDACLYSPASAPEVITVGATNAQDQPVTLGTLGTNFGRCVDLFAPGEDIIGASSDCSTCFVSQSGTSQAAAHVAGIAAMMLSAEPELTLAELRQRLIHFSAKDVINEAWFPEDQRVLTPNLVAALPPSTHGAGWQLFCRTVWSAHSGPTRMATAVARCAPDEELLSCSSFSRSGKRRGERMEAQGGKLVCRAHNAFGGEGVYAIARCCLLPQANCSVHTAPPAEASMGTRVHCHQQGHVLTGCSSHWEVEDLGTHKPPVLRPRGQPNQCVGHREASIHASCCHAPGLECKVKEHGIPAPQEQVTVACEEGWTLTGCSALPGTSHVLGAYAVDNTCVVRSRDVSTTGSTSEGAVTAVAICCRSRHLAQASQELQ

For orientation: Kd means the equilibrium constant for the complex coming apart. As for `C[C@@]1(c2ccc3ccccc3c2)NC(=O)N(CC(=O)N2CCC(C(=O)N3CCCCCC3)CC2)C1=O` (stereo in doubt) [Compound 16, 3-{2-[4-(azepane-1-carbonyl)piperidin-1-yl]-2-oxoethyl}-5-methyl-5-(naphthalen-2-yl)imidazolidine-2,4-dione], on Biotinylated PCSK9, the Kd was 3.88 µM, the kon was 22800 M⁻¹ s⁻¹ and the koff came out at 0.09 s⁻¹. Besides, the “LDLR Fold (relative LDLR protein levels)” value in series [1] was found to be 2.1 ± 1.2 Fold.

As for `CC1(c2ccc3ccccc3c2)NC(=O)N(CC(=O)N2CCC(C(=O)Nc3ccccc3)CC2)C1=O` (stereo not shown) [Compound 14, 1-[2-[4-methyl-4-(2-naphthyl)-2,5-dioxo-imidazolidin-1-yl]acetyl]-N-phenyl-piperidine-4-carboxamide], on Biotinylated PCSK9, the Kd is 13.8 µM, the kon was determined as 14500 M⁻¹ s⁻¹ and the koff was 0.19 s⁻¹. For the same molecule, the “LDLR Fold (relative LDLR protein levels)” value in series [1] is reported as 2.0 ± 0.7 Fold.

Regarding `O=C(c1csc(-c2cccs2)n1)N1CCc2c([nH]c3ccccc23)C1c1ccccn1` (stereo not drawn) [Compound 26, 1-(2-pyridinyl)-2-{[2-(2-thienyl)-1,3-thiazol-4-yl]carbonyl}-2,3,4,9-tetrahydro-1H-beta-carboline], at Biotinylated PCSK9, the Kd is 11 µM, the kon worked out at 104000 M⁻¹ s⁻¹ and the koff amounted to 1.14 s⁻¹. Moreover, in series [2], the ALT stood at 24 U/L, the AST turned out to be 67 U/L, the Glucose was determined as 16.3 mmol/L and the “ΔBody Weight (D 10 − D 0)” value turned out to be 99%. Besides, in series [2] (Western diet), the HDL-C came to 3.00 mmol/L, the “LDL-C (measured)” value is reported as 0.23 mmol/L, the TC stood at 3.03 mmol/L and the TG is 0.90 mmol/L. For the same molecule, in series [2] (Western diet), the nonHDL-C was found to be 0.04 mmol/L. Besides, the “LDL-C (pooled plasma) (FPLC AUC) (Fold Change %)” value in series [2] (pooled plasma FPLC) was −61%. Besides, in series [1], the “LDLR Fold (relative LDLR protein levels)” value amounted to 1.9 ± 0.5 Fold.
